This series relates to rodent lifetime carcinogenesis bioassay, tumor incidence TD50. Kind of series: chronic cancer bioassays in animals – CPDB, compiled studies (AID 1745844). To be noted: in feed, dosed 103 weeks, study length 107 weeks.

Structures are written as SMILES. Activity calls are given as the source filed them. No rule for the calls is given here.

As for `Nc1ccccc1`, the TD50 (in general, the 50% point of the dose-response relation for the toxic effect studied) is 9150 mg/kg/day (inactive) (mouse, strain B6C3F1, females, site: any site (literature study), lesion: several types, types named in the paper); 8850 mg/kg/day (mouse, strain B6C3F1, females, site: liver, lesion: hepatocellular adenoma + hepatocellular carcinoma + neoplastic nodule); 13000 mg/kg/day (rat, strain Fischer 344, females, site: liver, lesion: hepatocellular adenoma + hepatocellular carcinoma + neoplastic nodule); 1740 mg/kg/day (rat, strain Fischer 344, females, site: multiple organs + spleen, lesion: fibrosarcoma + sarcoma, NOS); 556 mg/kg/day (rat, strain Fischer 344, males, site: adrenal gland, lesion: pheochromocytoma + pheochromocytoma, malignant); 124 mg/kg/day (rat, strain Fischer 344, males, site: any site (literature study), lesion: several types, types named in the paper). The TD50 was 88 mg/kg/day (rat, strain Fischer 344, males, site: body cavities + multiple organs + spleen, lesion: mesothelioma, NOS + fibrosarcoma + hemangiosarcoma + sarcoma, NOS); 263 mg/kg/day (rat, strain Fischer 344, males, site: body cavities + multiple organs + spleen, lesion: mesothelioma, NOS + fibrosarcoma + sarcoma, NOS); 146 mg/kg/day (rat, strain Fischer 344, males, site: body cavities + multiple organs + spleen, lesion: mesothelioma, NOS + hemangiosarcoma); 572 mg/kg/day (rat, strain Fischer 344, males, site: body cavities + multiple organs, lesion: mesothelioma, NOS + fibrosarcoma + sarcoma, NOS); 451 mg/kg/day (rat, strain Fischer 344, males, site: spleen, lesion: fibrosarcoma + sarcoma, NOS); 160 mg/kg/day (rat, strain Fischer 344, males, site: spleen, lesion: hemangiosarcoma). For the same compound, under “mouse, strain B6C3F1, males, site: any site (literature study), lesion: several types, types named in the paper”, the carcinogen call was “negative (inactive)”.
